Measured values: patent publication US9353083B2, “Oxazetidine derivatives, process for preparing them and use in human medicine and in cosmetics” (GALDERMA RESEARCH & DEVELOPMENT, priority 2011, dated 2016)

Legend:
Format in all cases: cell-based
hMC1R = hMC1R (Homo sapiens (Human), UniProt Q01726); test: Transactivation test melanocortin receptors (CRE-Luc, HEK293), hMC1R; conditions: for EC50: HEK293, pCRE-Luc, agonist mode, read-out: EC50 hMC1-R
Experimental: (§1) The aim of this example is to show the Melanocortine receptor selectivity of compound 1 and compound 6 of the present invention: • Cells: The lines HEK293 are transfected with vectors pCRE-Luc and hMC1R or hMC4R. The cells are cultured at 37° C. and 5% CO2, in DMEM medium supplemented with 10% foetal calf serum. • Test principle: In the presence of an activator (agonist), the melanocortin receptor will activate the cAMP pathway, which, via the vector CRE-Luc, will lead to the synthesis of luciferase. After addition of a lysis buffer containing a luminescent luciferase substrate, the luminescence proportional to the degree of activation or inhibition of receptor may be measured. • Testing the products: The products are dissolved at 10 mM in DMSO. They are tested as a response dose at 0.1% of DMSO final. The range comprising 10 points and a zero starts at 10 μM with four-fold dilutions. To test agonists, the products are tested alone. To determine the antagonist behaviour, the products of interest are tested in the presence of 1 nM NDP-MSH (reference agonist). The cells are inoculated at a rate of 5000 cells per well (384-well plate) in serum-free DMEM medium and incubated overnight at 37° C. and 5% CO2. • The products and the reference ligand (NDP-MSH) are added the following day and the plates are reincubated for 6 hours at 37° C. and 5% CO2. After adding the lysis buffer containing luciferin, the plates are read in a Top-Count machine. The results are normalized as percentage of activity using the 100% (cells+NDP-MSH at 10 nM) and 0% (cells alone) controls. An EC50 is calculated for each product using the XLFit software.

hMC4R = hMC4R (Homo sapiens (Human), UniProt P32245); test: Transactivation test melanocortin receptors (CRE-Luc, HEK293), hMC4R; conditions: HEK293, pCRE-Luc, agonist mode; read-out: EC50 hMC4-R
Chain of hMC4R (P32245 whole entry): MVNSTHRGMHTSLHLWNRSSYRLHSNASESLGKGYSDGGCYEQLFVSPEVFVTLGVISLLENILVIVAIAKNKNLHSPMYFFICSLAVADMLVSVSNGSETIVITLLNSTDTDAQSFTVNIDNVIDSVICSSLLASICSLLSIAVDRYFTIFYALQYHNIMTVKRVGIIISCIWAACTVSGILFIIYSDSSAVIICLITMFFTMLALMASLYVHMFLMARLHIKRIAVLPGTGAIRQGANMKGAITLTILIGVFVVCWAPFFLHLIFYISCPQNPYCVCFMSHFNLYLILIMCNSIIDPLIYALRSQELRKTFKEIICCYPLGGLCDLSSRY
Experimental: as §1, with “The cells are inoculated at a rate of 5000 cells per well (384-well plate) in serum-free DMEM medium and incubated overnight at 37° C. and 5% CO2. • The products and the reference ligand (NDP-MSH) are added the following day and the plates are reincubated for 6 hours at 37° C. and 5% CO2.” left out, “The results are normalized as percentage of activity using the 100% (cells+NDP-MSH at 10 nM) and 0% (cells alone) controls.” left out

hERG potassium channel = hERG potassium channel (Homo sapiens (Human), UniProt Q12809); test: hERG channel test: effect on amplitude of IKr in hERG transfected cells; conditions: for effect on the amplitude of IKr encoded by hERG (change in percentage relative to the control): hERG transfected human cells; for effect observed on the amplitude of IKr (in words): 1, 3 and 10 μM; for lengthening the QT time (conclusion from hERG test): under the experimental conditions; for IC50: estimated from 1, 3 and 10 μM, read-out: Estimated IC50 for hERG channel blockade; for concentration from which the decrease of the amplitude of IKr starts: tested at 1, 3 and 10 μM; for decrease of the amplitude of IKr: with 10 μM
Chain of hERG potassium channel (Q12809 whole entry): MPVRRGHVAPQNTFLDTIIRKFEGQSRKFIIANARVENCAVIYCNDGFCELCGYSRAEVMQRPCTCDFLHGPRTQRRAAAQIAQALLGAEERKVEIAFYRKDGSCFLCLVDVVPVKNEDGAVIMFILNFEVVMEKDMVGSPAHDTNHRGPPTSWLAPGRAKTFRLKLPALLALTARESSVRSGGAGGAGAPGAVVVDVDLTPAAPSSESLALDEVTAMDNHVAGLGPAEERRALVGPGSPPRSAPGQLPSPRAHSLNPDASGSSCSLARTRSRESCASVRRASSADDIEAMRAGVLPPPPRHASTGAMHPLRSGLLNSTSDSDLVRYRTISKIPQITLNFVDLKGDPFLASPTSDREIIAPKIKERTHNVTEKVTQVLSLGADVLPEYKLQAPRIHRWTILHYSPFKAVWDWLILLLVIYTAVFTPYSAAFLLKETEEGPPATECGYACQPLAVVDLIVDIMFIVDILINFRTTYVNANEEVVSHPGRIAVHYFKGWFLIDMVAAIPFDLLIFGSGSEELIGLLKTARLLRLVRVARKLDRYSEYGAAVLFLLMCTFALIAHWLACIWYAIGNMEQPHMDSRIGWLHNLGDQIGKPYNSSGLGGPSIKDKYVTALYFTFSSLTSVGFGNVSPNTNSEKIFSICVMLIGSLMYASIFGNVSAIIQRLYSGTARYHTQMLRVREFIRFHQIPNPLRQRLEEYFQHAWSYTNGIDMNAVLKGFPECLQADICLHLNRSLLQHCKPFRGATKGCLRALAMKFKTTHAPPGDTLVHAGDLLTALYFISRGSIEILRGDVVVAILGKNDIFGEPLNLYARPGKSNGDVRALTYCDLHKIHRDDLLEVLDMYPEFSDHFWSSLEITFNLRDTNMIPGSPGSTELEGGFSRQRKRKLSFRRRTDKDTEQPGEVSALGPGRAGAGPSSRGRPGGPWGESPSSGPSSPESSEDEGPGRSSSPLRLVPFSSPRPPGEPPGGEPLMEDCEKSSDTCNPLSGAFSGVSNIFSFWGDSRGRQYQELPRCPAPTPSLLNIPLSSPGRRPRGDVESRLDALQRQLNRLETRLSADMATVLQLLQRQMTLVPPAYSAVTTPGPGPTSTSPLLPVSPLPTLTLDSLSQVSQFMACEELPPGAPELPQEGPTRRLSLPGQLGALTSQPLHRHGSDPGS
Experimental: The object of the study was to track down the inhibition profile of seven selective compounds from human cell lines stably transfected with the gene for expressing the IKr protein of the hERG potassium channel. Several MC1R agonist compounds and especially the compounds of interest in the context of the invention were evaluated. The toxicity evaluation was performed using three increasing concentrations (1, 3 and 10 μM) of 2 hERG transfected cells (no reference compound used) of the following compounds: • Compound 1: N-[(R)-2-[3-(4-hydroxybutoxy)-3-o-tolylazetidin-1-yl]-1-(4-methoxybenzyl)-2-oxoethyl]-3-(1H-imidazol-4-yl)propionamide • Compound 2: (S)-N-[(R)-2-(3-butoxy-3-o-tolylazetidin-1-yl)-1-(4-methoxybenzyl)-2-oxoethyl]-2-hydroxy-3-(1H-imidazol-4-yl)propionamide • Compound 3: 3-(1H-imidazol-4-yl)-N-{(R)-1-(4-methoxybenzyl)-2-oxo-2-[3-o-tolyl-3-(4,4,4-trifluorobutoxy)azetidin-1-yl]ethyl}propionamide • Compound 4: N-[(R)-2-(3-but-2-ynyloxy-3-o-tolylazetidin-1-yl)-1-(4-methoxybenzyl)-2-oxoethyl]-3-(5-methyl-1H-imidazol-4-yl)propionamide • Compound 5: N-[(R)-2-(3-cyclobutylmethoxy-3-o-tolylazetidin-1-yl)-1-(4-methoxybenzyl)-2-oxoethyl]-3-(5-methyl-1H-imidazol-4-yl)propionamide • Compound 6: N-[(R)-2-(3-cyclopropylmethoxy-3-o-tolylazetidin-1-yl)-1-(4-methoxybenzyl)-2-oxoethyl]-3-(5-methyl-1H-imidazol-4-yl)propionamide • Compound 7: N-[(R)-2-(3-butoxy-3-o-tolylazetidin-1-yl)-1-(4-methoxybenzyl)-2-oxoethyl]-3-guanidinopropionamide; bis(trifluoroacetic acid) salt
The effect on the amplitude of IKr encoded by hERG (as the changes in percentages relative to the control) are summarized per compound and per concentration in Table 1 below.

Chain of hMC1R (Q01726 whole entry): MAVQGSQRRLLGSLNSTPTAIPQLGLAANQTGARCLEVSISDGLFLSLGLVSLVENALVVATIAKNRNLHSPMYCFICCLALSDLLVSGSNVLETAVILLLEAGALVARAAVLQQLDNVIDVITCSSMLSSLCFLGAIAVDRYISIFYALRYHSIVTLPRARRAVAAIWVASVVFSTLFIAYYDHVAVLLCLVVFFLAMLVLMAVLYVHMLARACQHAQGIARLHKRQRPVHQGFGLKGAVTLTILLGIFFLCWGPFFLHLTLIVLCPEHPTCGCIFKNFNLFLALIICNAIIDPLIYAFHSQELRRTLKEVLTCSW

| Compound | melanocortin receptor selectivity (hMC1R versus hMC4R) (hMC1R) | EC50 (hMC1R) | EC50 (hMC4R) | cardiotoxic alert on the hERG channel test (hERG potassium channel) | effect on the amplitude of IKr encoded by hERG (change in percentage relative to the control) (hERG potassium channel; 1 μM) | effect on the amplitude of IKr encoded by hERG (change in percentage relative to the control) (hERG potassium channel; 3 μM) | effect on the amplitude of IKr encoded by hERG (change in percentage relative to the control) (hERG potassium channel; 10 μM) | effect observed on the amplitude of IKr (in words) (hERG potassium channel) | lengthening the QT time (conclusion from hERG test) (hERG potassium channel) | IC50 (hERG potassium channel) | concentration from which the decrease of the amplitude of IKr starts (hERG potassium channel) | decrease of the amplitude of IKr (hERG potassium channel) |
| --- | --- | --- | --- | --- | --- | --- | --- | --- | --- | --- | --- | --- |
| COc1ccc(C[C@@H](NC(=O)CCc2c[nH]cn2)C(=O)N2CC(OCCCCO)(c3ccccc3C)C2)cc1 [Compound 1, N-[(R)-2-[3-(4-hydroxybutoxy)-3-o-tolylazetidin-1-yl]-1-(4-methoxybenzyl)-2-oxoethyl]-3-(1H-imidazol-4-yl)propionamide] | hMC1R highly selective | 0.25 µM | 8 µM | do not present any cardiotoxic alert | −1.5 ± 2.5% | −3.0 ± 1.0% | −7.5 ± 3.5% | no effect observed | did not exhibit this characteristic | – | – | – |
| CCCCOC1(c2ccccc2C)CN(C(=O)[C@@H](Cc2ccc(OC)cc2)NC(=O)[C@@H](O)Cc2c[nH]cn2)C1 [Compound 2, (S)-N-[(R)-2-(3-butoxy-3-o-tolylazetidin-1-yl)-1-(4-methoxybenzyl)-2-oxoethyl]-2-hydroxy-3-(1H-imidazol-4-yl)propionamide] | – | – | – | – | +1.0 ± 1.0% | −5.0 ± 5.0% | −51.5 ± 6.5% | modified but only at the highest concentration | more substantially | 10 µM | – | – |
| COc1ccc(C[C@@H](NC(=O)CCc2c[nH]cn2)C(=O)N2CC(OCCCC(F)(F)F)(c3ccccc3C)C2)cc1 [Compound 3, 3-(1H-imidazol-4-yl)-N-{(R)-1-(4-methoxybenzyl)-2-oxo-2-[3-o-tolyl-3-(4,4,4-trifluorobutoxy)azetidin-1-yl]ethyl}propionamide] | – | – | – | – | −16.0 ± 3.0% | −42.5 ± 5.5% | −86.5 ± 3.5% | dose effect observed | more substantially | > 3 µM | 1000 nM | 86.5% |
| CC#CCOC1(c2ccccc2C)CN(C(=O)[C@@H](Cc2ccc(OC)cc2)NC(=O)CCc2nc[nH]c2C)C1 [Compound 4, N-[(R)-2-(3-but-2-ynyloxy-3-o-tolylazetidin-1-yl)-1-(4-methoxybenzyl)-2-oxoethyl]-3-(5-methyl-1H-imidazol-4-yl)propionamide] | – | – | – | – | −20.5 ± 9.5% | −22.0 ± 10.0% | −42.5 ± 2.5% | dose effect observed | more substantially | > 10 µM | 3000 nM | 42.5% |
| COc1ccc(C[C@@H](NC(=O)CCc2nc[nH]c2C)C(=O)N2CC(OCC3CCC3)(c3ccccc3C)C2)cc1 [Compound 5, N-[(R)-2-(3-cyclobutylmethoxy-3-o-tolylazetidin-1-yl)-1-(4-methoxybenzyl)-2-oxoethyl]-3-(5-methyl-1H-imidazol-4-yl)propionamide] | – | – | – | – | −17.0 ± 4.0% | −49.5 ± 16.5% | −76.5 ± 17.5% | dose effect observed | more substantially | 3 µM | 1000 nM | 76.5% |
| COc1ccc(C[C@@H](NC(=O)CCc2nc[nH]c2C)C(=O)N2CC(OCC3CC3)(c3ccccc3C)C2)cc1 [Compound 6, N-[(R)-2-(3-cyclopropylmethoxy-3-o-tolylazetidin-1-yl)-1-(4-methoxybenzyl)-2-oxoethyl]-3-(5-methyl-1H-imidazol-4-yl)propionamide] | hMC1R highly selective | 0.07 µM | 4.5 µM | do not present any cardiotoxic alert | −5.0 ± 3.0% | −9.5 ± 3.5% | −16.0 ± 7.0% | no effect observed | did not exhibit this characteristic | – | – | – |
| CCCCOC1(c2ccccc2C)CN(C(=O)[C@@H](Cc2ccc(OC)cc2)NC(=O)CCNC(=N)N)C1 [Compound 7, N-[(R)-2-(3-butoxy-3-o-tolylazetidin-1-yl)-1-(4-methoxybenzyl)-2-oxoethyl]-3-guanidinopropionamide] | – | – | – | – | −19.5 ± 4.5% | −29.5 ± 9.5% | −33.0 ± 12.0% | slight dose effect observed | slightly | > 10 µM | 1000 nM | 33% |
